In PubChem BioAssay (NCI):
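Cells were grown in 96-well plates and exposed to each compound for 48 hours at five concentrations; endpoints were interpolated linearly between bracketing concentrations, or set to the highest concentration if not reached. GI50 = concentration required for 50% inhibition of growth. TGI is the concentration that stops growth completely.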

Columns and labels:
Experiment in all cases: inhibition of tumour cell growth, NCI panel, 48 h
HL-60(TB) leukemia = tested on: HL-60(TB) leukemia
SK-MEL-28 melanoma = tested on: SK-MEL-28 melanoma
EKVX NSCLC = tested on: EKVX NSCLC
SF-295 CNS = tested on: SF-295 CNS
OVCAR-4 ovarian = tested on: OVCAR-4 ovarian
ACHN renal = tested on: ACHN renal
CCRF-CEM leukemia = tested on: CCRF-CEM leukemia
NCI-H226 lung = tested on: NCI-H226 lung
NCI-H522 lung = tested on: NCI-H522 lung
MOLT-4 leukemia = tested on: MOLT-4 leukemia

Compound | TGI (HL-60(TB) leukemia) [µM] | TGI (SK-MEL-28 melanoma) [µM] | TGI (EKVX NSCLC) [µM] | TGI (SF-295 CNS) [µM] | TGI (OVCAR-4 ovarian) [µM] | TGI (ACHN renal) [µM] | TGI (CCRF-CEM leukemia) [µM] | TGI (NCI-H226 lung) [µM] | TGI (NCI-H522 lung) [µM] | TGI (MOLT-4 leukemia) [µM] | GI50 (HL-60(TB) leukemia) [µM] | GI50 (SK-MEL-28 melanoma) [µM] | GI50 (EKVX NSCLC) [µM] | GI50 (SF-295 CNS) [µM] | GI50 (OVCAR-4 ovarian) [µM] | GI50 (ACHN renal) [µM] | GI50 (CCRF-CEM leukemia) [µM] | GI50 (NCI-H226 lung) [µM] | GI50 (NCI-H522 lung) [µM] | GI50 (MOLT-4 leukemia) [µM]
CC(C)OC(=S)Nc1ccc(Cl)c(/C=N/OC(C)(C)C)c1 | 37.8 | 44.8 | 36.3 | 18.6 | 35.3 | 28.7 | 36.8 | 34.2 | 30.8 | 30.8 |  |  |  |  |  |  |  |  |  | 
CCOC(=O)/C(=C/c1cccc(Cl)c1)N(CC)CC | > 100 | > 100 | > 100 | > 100 | > 100 | > 100 | > 100 | > 100 | 96.2 | > 100 |  |  |  |  |  |  |  |  |  | 
CS(=O)(=O)OCCCNCCCOS(C)(=O)=O | 2540 | 7560 | 6030 | 4760 | 5360 | 3580 | 3130 | 5860 | 5510 | 2340 |  |  |  |  |  |  |  |  |  | 
CCCc1cc(=O)n2c(C(=O)Nc3ccc(F)cc3)c(C(=O)Nc3ccc(F)cc3)sc2n1 | > 160 | > 160 | > 160 | > 160 | 54.9 | 57.7 | > 160 | 16.3 | > 160 | > 160 | > 160 | 56.5 | > 160 | > 160 | 26.4 | 17.3 | > 160 | 1.71 | 73.3 | > 160
COc1cc(C2C3=C(COC3=O)N(CCO)c3cc4c(cc32)OCCO4)cc(OC)c1OC (centres undefined) | 1.28 | > 50 | > 50 | 4.66 | > 50 | > 50 | > 50 | > 50 | 0.185 | > 11.4 | 0.155 | > 50 | 0.413 | 0.15 | 0.416 | 1.7 | 0.176 | 4.48 | 0.0626 | 0.242
CN(C)CC1CC/C(=C\c2ccc3c(c2)OCO3)C1=O (centres undefined) | 11 | 22.9 | 39.4 | 56.8 | 18.9 | 28.5 | 19.7 | 50.6 | 8.51 | 13.8 |  |  |  |  |  |  |  |  |  | 
N#CC1=C(N)Oc2c(ccc3ccccc23)C1c1cc(=O)oc2ccc(Cl)cc12 (centres undefined) | 1.51 | 74.9 | > 100 | 20.1 | > 100 | 73.4 | 58.1 | 81.6 | 2.97 | 87.8 | 0.275 | 10.6 | 3.79 | 0.398 | 4.31 | 1.99 | 0.407 | 26 | 0.348 | 0.887
CC/C(Cc1ccccc1)=C(\c1ccc(OCCN2CCCC2)cc1)c1ccc(OC(=O)NCc2ccccc2)cc1 | 3.98 | 3.18 | 7.39 | 3.14 | 3.85 | 3.06 | 7.56 | 14.2 | 4.14 | 5.66 | 1.93 | 1.72 | 2.37 | 1.7 | 1.86 | 1.69 | 2.83 | 3.52 | 1.99 | 2.23
Nc1nc2c(C(=O)NCc3cccs3)nnn2c2cccc(Cl)c12 | > 100 | > 100 | > 100 | > 100 | > 100 | > 100 | 55.6 | > 100 | > 100 | > 100 |  |  |  |  |  |  |  |  |  | 
C#Cc1cccc(Nc2nc(Cl)nc3cc(NC(=O)CCl)ccc23)c1 | 7.27 | 6.12 | 6.27 | 7.33 | 2.69 | 4.63 | 2.47 | 5.27 | 0.897 | 1.64 | 1.42 | 2.85 | 2.12 | 3.89 | 0.847 | 1.48 | 0.588 | 1.61 | 0.465 | 0.564
CCOC(=O)c1cc(-c2ccc(-c3cc(C(=O)OCC)c(C#N)c(N)c3C#N)cc2)c(C#N)c(N)c1C#N | > 100 | > 100 | > 100 | > 100 | > 100 | > 100 | > 100 | > 100 | > 100 | > 100 |  |  |  |  |  |  |  |  |  | 
O=C(Nc1ccccc1I(=O)=O)C1CCCCC1 | > 100 | > 100 | > 100 | > 100 | > 100 | > 100 | > 100 | > 100 | > 100 | > 100 | 57.6 | > 100 | > 100 | > 100 | > 100 | > 100 | > 100 | > 100 | > 100 | 98.5
COc1ccc(-c2cncn2-c2cc(OC)c(OC)c(OC)c2)cc1 | 3.59 | > 100 | > 100 | > 14.8 | > 100 | 49.4 | 18.5 | 82.6 | 0.283 | > 77 | 1.72 | 11.3 | 3.06 | 0.0311 | > 36.3 | 0.366 | 0.843 | 1.97 | 0.019 | 1.87
CS(=O)(=O)c1ccc(Nc2nc(N[C@H]3CCCC[C@H]3N)nc3cc[nH]c(=O)c23)cc1 | 6.6 | 5.38 | 5.41 | 5.84 | 9.81 | 90.1 | > 100 | 19 | 1.72 | 17.5 | 0.533 | 1.93 | 1.3 | 1.91 | 1.89 | 5.24 | 1.24 | 2.67 | 0.268 | 2.95
COC1=CC(C2c3cc4c(cc3[C@@H](Nc3ccc(F)cc3)C3COC(=O)[C@H]23)OCO4)=CC(=O)C1=O (some centres undefined) | > 21.4 | 45.8 | > 59.1 | 11.8 | > 61.2 | 23.4 | > 29 | 39.3 | 14.9 | 14.5 |  |  |  |  |  |  |  |  |  | 
Cc1c(C#N)cccc1[C@@H](C)Nc1nnc(C)c2cnc(N3CCOCC3)cc12 | 63.7 | > 100 | > 100 | > 100 | 61.8 | > 100 | > 100 | > 100 | > 100 | 90.6 | 22.8 | 28.3 | 18.3 | 21.9 | 13.9 | 21.4 | 39.2 | 23.2 | 17.5 | 28.3
COc1cccc2cc(N(C)c3nc(C)nc4c3CCC4)ccc12 | 0.0103 | 21.6 | 30.7 | 12.5 | 20 | 13.7 | 14.7 | 32.4 | < 0.01 | 16.1 | < 0.01 | 4.7 | < 0.01 | < 0.01 | < 0.0104 | < 0.01 | < 0.01 | 12.7 | < 0.01 | < 0.01
O=C(NCC(F)(F)F)Nc1cccc(-c2cnc3cc(-c4ccc(F)cc4)ccn23)c1 | 24.7 | > 83 | > 100 | 6.97 | > 100 | > 52.1 | > 82.7 | > 100 | 0.962 | > 29 | 0.58 | 9.16 | 5.17 | 0.737 | 1.66 | 2.53 | 1.25 | 3.99 | 0.225 | 0.681
O=C(O)/C(Cc1ccnc2ccccc12)=N\O | > 100 | > 100 | > 100 | > 100 | > 100 | > 100 | > 100 | > 100 | > 100 | > 100 |  |  |  |  |  |  |  |  |  | 
CC(=O)OC12C=C(C)C(C(C)C1)C1C(=O)N(CCN3CCCCC3)C(=O)C12 (centres undefined) | > 50 |  | > 50 | > 50 | > 50 | > 50 | > 50 | > 50 | > 50 | > 50 | > 50 |  | > 50 | > 50 | > 50 | > 50 | > 50 | > 50 | > 50 | > 50
CCCOC(=O)c1c(C)n(C)c2scc[n+]12 | > 100 | > 100 | > 100 | > 100 | > 100 | > 100 | > 100 | > 100 | > 100 | > 100 | > 100 | > 100 | 13.7 | 41.7 | 37.1 | > 100 | 53.5 | 62.3 | 31.4 | 53.9
C/C(CN1C(=O)c2ccccc2C1=O)=N\NS(=O)(=O)c1cccc(C(=O)O)c1 | > 100 | > 100 | > 100 | > 100 | > 100 | > 100 | > 100 | > 100 | > 100 | > 100 |  |  |  |  |  |  |  |  |  | 
CC1=C(C(=O)Nc2ccccc2)C(c2ccccc2Cl)C(C(=O)Nc2ccccc2)=C(C)N1 | 31.8 | 61.9 | 37.7 | 66.9 | > 100 | 94.1 | 62.1 | 59 | 35.4 | 60.1 |  |  |  |  |  |  |  |  |  | 
COc1ccccc1S(=O)(=O)Nc1ccc2c3c(cc(CCC(=O)NCCCCNc4cccc5c4C(=O)N(C4CCC(=O)NC4=O)C5=O)cc13)C(=O)N2C (centres undefined) |  | > 100 | > 100 | > 100 | 1.44 | > 100 |  | 4.79 | > 100 |  | 0.0273 | 1.08 | 18.1 | 3.75 | 0.259 | > 100 | 0.0315 | 0.456 | 4.22 | 0.0352
COc1ccc(C(=O)c2cc(C)c(OC)c(C)c2)c(OC)c1NC(C)=O | 1.37 | > 100 | > 100 | > 100 | > 100 | > 100 | > 100 | 1.58 |  | > 100 | 0.309 | 0.504 | 0.251 | 0.046 | 7.68 | 0.0944 | 2.4 | 0.102 | 0.157 | 3.13
CC(C)N(Cc1ccc(CN(C(=O)CCl)C(C)C)cc1)C(=O)CCl | 4.96 | 6.52 | 5.63 | 3.88 | 3.63 | 3.74 | 0.865 | 9.44 | 0.342 | 8.13 | 1.95 | 2.36 | 2.36 | 1.81 | 1.38 | 1.88 | 0.287 | 3.25 | 0.156 | 2.33
O=C1/C(=C/c2ccc(F)cc2)CN(C(=O)CCN2CCC(=NO)CC2)C/C1=C\c1ccc(F)cc1 | 7.95 | 4.1 | 5.9 | 4.72 | 5.14 | 2.86 | > 57.6 | 8.51 | 3.53 | 7.97 | 2.26 | 1.85 | 2.19 | 2.06 | 2.34 | 1.08 | 0.514 | 2.55 | 1.24 | 0.699
O=C(O)CCNS(=O)(=O)c1ccc2ccccc2c1 | > 100 | > 100 | > 100 | > 100 | > 100 | > 100 | > 100 | > 100 | > 100 | > 100 |  |  |  |  |  |  |  |  |  | 
O=C(C(=O)n1ncc(Cl)c(Cl)c1=O)n1ncc(Cl)c(Cl)c1=O | 22.6 | 59.3 | > 83.8 | > 100 | 36.1 | 32.9 | 29.7 | > 100 | 28.1 | 43.7 |  |  |  |  |  |  |  |  |  | 
